Data as given in publication PMC12396409, “Screening and hit evaluation of a microbial metabolite library against the pathogenic Plasmodium falciparum and Toxoplasma gondii parasites” (International Journal for Parasitology: Drugs and Drug …, 2025).
Where two headings read alike, the source gives them in different places.

What was measured:
[1] = test system: P. falciparum 3D7 parasites; test: P. falciparum growth inhibition assay, 1-cycle (72 h treatment), SYBR DNA staining (library screen at 2 μg/mL and dose-response); type: cell-based, Plasmodium falciparum; conditions: for activity at 2 µg/mL: Plasmodium falciparum, 3D7, 72 h
[2] = test system: P. falciparum 3D7 parasites; test: P. falciparum growth inhibition assay, 2-cycle (120 h treatment), delayed-death screen and dose-response; type: cell-based, Plasmodium falciparum; conditions: for activity at 2 µg/mL: Plasmodium falciparum, 3D7, 120 h
[3] = test system: T. gondii RH strain (RH-Tub-eYFP) tachyzoites; test: microbe, parasite or virus in culture; type: cell-based, Toxoplasma gondii; conditions: 72 h; for percent parasite growth at 2 µg/mL: Toxoplasma gondii
[4] = P. falciparum, 72 h, parasite screen 2 μg/mL, % growth, replicate 1
[5] = P. falciparum, 72 h, parasite screen 2 μg/mL, % growth, replicate 2
[6] = P. falciparum, 120 h, parasite screen 2 μg/mL, % growth, replicate 1
[7] = P. falciparum, 120 h, parasite screen 2 μg/mL, % growth, replicate 2
[8] = T. gondii, parasite screen 2 μg/mL, % growth, replicate 1
[9] = T. gondii, parasite screen 2 μg/mL, % growth, replicate 2
[10] = P. falciparum, 72 h, screen at 2 μg/mL, replicate 1
[11] = P. falciparum, 72 h, screen at 2 μg/mL, replicate 2
[12] = P. falciparum, 120 h, screen at 2 μg/mL, replicate 1
[13] = P. falciparum, 120 h, screen at 2 μg/mL, replicate 2
[14] = T. gondii, screen at 2 μg/mL, replicate 1
[15] = T. gondii, screen at 2 μg/mL, replicate 2
[16] = library screen at 2 μg/mL, 72 h, % growth, replicate 1
[17] = library screen at 2 μg/mL, 72 h, % growth, replicate 2
[18] = library screen at 2 μg/mL, 120 h, % growth, replicate 1
[19] = library screen at 2 μg/mL, 120 h, % growth, replicate 2
[20] = library screen at 2 μg/mL, % growth, replicate 1
[21] = library screen at 2 μg/mL, % growth, replicate 2

**Q.** Which results are given for `C=C1CC[C@H](OC(C)=O)C(C)(C)[C@@H]1CC/C(C)=C/CC/C(C)=C/Cc1c(O)cc(C)oc1=O` [Sartorypyrone A]?
**A.** Pf_72h_%Growth_Rep1 [1, 4]: 32.17%; Pf_72h_%Growth_Rep2 [1, 5]: 81.37%; Pf_120h_%Growth_Rep1 [2, 6]: 16.39%; Pf_120h_%Growth_Rep2 [2, 7]: 52.54%; Tg_72h_%Growth_Rep1 [3, 8]: 82.97%; Tg_72h_%Growth_Rep2 [3, 9]: 82.11%

**Q.** What does the source list for `CC(=O)C1=C(O)[C@@H]2[C@H]3c4c[nH]c5cccc(c45)C[C@H]3C(C)(C)N2C1=O` [Cyclopiazonic acid]?
**A.** activity at 2 µg/mL ([1]; P. falciparum, 72 h, screen at 2 μg/mL, replicate 1, read-out: Pf_72h_%Growth_Rep1): 12.6%; activity at 2 µg/mL ([1]; P. falciparum, 72 h, screen at 2 μg/mL, replicate 2, read-out: Pf_72h_%Growth_Rep2): 7.26%; activity at 2 µg/mL ([2]; P. falciparum, 120 h, screen at 2 μg/mL, replicate 1, read-out: Pf_120h_%Growth_Rep1): 14%; activity at 2 µg/mL ([2]; P. falciparum, 120 h, screen at 2 μg/mL, replicate 2, read-out: Pf_120h_%Growth_Rep2): 9.35%; percent parasite growth at 2 µg/mL ([3]; T. gondii, screen at 2 μg/mL, replicate 1, read-out: Tg_72h_%Growth_Rep1): 0.36%; percent parasite growth at 2 µg/mL ([3]; T. gondii, screen at 2 μg/mL, replicate 2, read-out: Tg_72h_%Growth_Rep2): 3.22%

**Q.** With `C=Cc1cc(OC)c2c(c1)c(=O)oc1c2cc(OC)c2c(O)ccc([C@H]3O[C@H](C)[C@@H](O)[C@@H](N(C)C)[C@@H]3O)c21` [Deacetylravidomycin] as the compound, how does the Pf_72h_%Growth_Rep1 [1, 10] read?
**A.** 3.21%

**Q.** And the Pf_72h_%Growth_Rep2 [1, 11]?
**A.** 5.95%

**Q.** What about the Pf_120h_%Growth_Rep1 [2, 12] of the same compound?
**A.** 1.87%

**Q.** And the Pf_120h_%Growth_Rep2 [2, 13]?
**A.** 7.89%

**Q.** What about the Tg_72h_%Growth_Rep1 [3, 14] of the same compound?
**A.** 3.62%

**Q.** And the Tg_72h_%Growth_Rep2 [3, 15]?
**A.** 4.01%

**Q.** Which Pf_72h_%Growth_Rep1 ([1]; P. falciparum 3D7, 72 h, parasite screen at 2 μg/mL, % growth, replicate 1) does the source give for `CON=C1CC2(CC3CC(CC=C(C)CC(C)C=CC=C4COC5C(O)C(C)=CC(C(=O)O3)C45O)O2)OC(C(C)=CC(C)C)C1C` (stereo not drawn) [BIA-M1298] here?
**A.** 17.45%

**Q.** What about the Pf_72h_%Growth_Rep2 ([1]; P. falciparum 3D7, 72 h, parasite screen at 2 μg/mL, % growth, replicate 2) of the same compound?
**A.** -0.02%

**Q.** And the Pf_120h_%Growth_Rep1 ([2]; P. falciparum 3D7, 120 h, parasite screen at 2 μg/mL, % growth, replicate 1)?
**A.** -5.10%

**Q.** And the Pf_120h_%Growth_Rep2 ([2]; P. falciparum 3D7, 120 h, parasite screen at 2 μg/mL, % growth, replicate 2)?
**A.** 5.91%

**Q.** What about the Tg_72h_%Growth_Rep1 ([3]; T. gondii, parasite screen at 2 μg/mL, % growth, replicate 1) of the same compound?
**A.** 102.84%

**Q.** What about the Tg_72h_%Growth_Rep2 ([3]; T. gondii, parasite screen at 2 μg/mL, % growth, replicate 2) of the same compound?
**A.** 95.78%

**Q.** What does the source list for `O=C(/C=C/C=C/C=C/C1CCCCC1)NC1=C[C@@](O)(/C=C/C=C/C=C/C(=O)NC2=C(O)CCC2=O)[C@@H]2O[C@@H]2C1=O` [Asukamycin]?
**A.** Pf_72h_%Growth_Rep1 [1, 16]: 79.58%; Pf_72h_%Growth_Rep2 [1, 17]: 78.85%; Pf_120h_%Growth_Rep1 [2, 18]: 67.03%; Pf_120h_%Growth_Rep2 [2, 19]: 82.56%; Tg_72h_%Growth_Rep1 [3, 20]: 161.41%; Tg_72h_%Growth_Rep2 [3, 21]: 93.58%

**Q.** `CC(C)[C@@H]1NC(=O)[C@@H]2CCCN2C1=O` [Cyclo(L-Pro-L-Val)] was tested. Which Pf_72h_%Growth_Rep1 [1, 10] did it give?
**A.** 85.07%

**Q.** And the Pf_72h_%Growth_Rep2 [1, 11]?
**A.** 82.22%

**Q.** And the Pf_120h_%Growth_Rep1 [2, 12]?
**A.** 101.90%

**Q.** What about the Pf_120h_%Growth_Rep2 [2, 13] of the same compound?
**A.** 92.75%

**Q.** And the Tg_72h_%Growth_Rep1 [3, 14]?
**A.** 147.92%

**Q.** What about the Tg_72h_%Growth_Rep2 [3, 15] of the same compound?
**A.** 100.59%

**Q.** With `COC(=O)C1=CO[C@@H](C)[C@@H]2CN3CCc4c([nH]c5cc(OC)c(OC)cc45)[C@H]3C[C@H]12` [Reserpiline] as the compound, how does the Pf_72h_%Growth_Rep1 [1, 4] read?
**A.** 29.90%

**Q.** And the Pf_72h_%Growth_Rep2 [1, 5]?
**A.** 27.58%

**Q.** What about the Pf_120h_%Growth_Rep1 [2, 6] of the same compound?
**A.** 31.58%

**Q.** What about the Pf_120h_%Growth_Rep2 [2, 7] of the same compound?
**A.** 13.59%

**Q.** And the Tg_72h_%Growth_Rep1 [3, 8]?
**A.** 145.39%

**Q.** And the Tg_72h_%Growth_Rep2 [3, 9]?
**A.** 95.76%

**Q.** For `CC[C@H]1C[C@@H]2CC[C@@H](O2)[C@@H](C)C(=O)O[C@H](CC)C[C@H]2CC[C@H](O2)[C@H](C)C(=O)O[C@@H](CC)C[C@@H]2CC[C@@H](O2)[C@@H](C)C(=O)O[C@H](CC)C[C@H]2CC[C@H](O2)[C@H](C)C(=O)O1` [Tetranactin], which Pf_72h_%Growth_Rep1 [1, 10] is on record?
**A.** 6.09%

**Q.** And the Pf_72h_%Growth_Rep2 [1, 11]?
**A.** -9.23%

**Q.** And the Pf_120h_%Growth_Rep1 [2, 12]?
**A.** 29.81%

**Q.** And the Pf_120h_%Growth_Rep2 [2, 13]?
**A.** 14.39%

**Q.** What about the Tg_72h_%Growth_Rep1 [3, 14] of the same compound?
**A.** 5.41%

**Q.** And the Tg_72h_%Growth_Rep2 [3, 15]?
**A.** 2.84%

**Q.** With Dihydrocyclosporin A as the compound, how does the Pf_72h_%Growth_Rep1 [1, 16] read?
**A.** 1.22%

**Q.** What about the Pf_72h_%Growth_Rep2 [1, 17] of the same compound?
**A.** -3.30%

**Q.** And the Pf_120h_%Growth_Rep1 [2, 18]?
**A.** 3.25%

**Q.** What about the Pf_120h_%Growth_Rep2 [2, 19] of the same compound?
**A.** 2.98%

**Q.** And the Tg_72h_%Growth_Rep1 [3, 20]?
**A.** 8.15%

**Q.** What about the Tg_72h_%Growth_Rep2 [3, 21] of the same compound?
**A.** 8.03%
